Results as given in US20090203685A1, “ANTI-PROLIFERATIVE COMPOUNDS FROM A 3-ARYL-COUMARINE OR 3-ARYL-QUINOLIN-2-ONE AND USES THEREOF” (EOS (ETHICAL ONCOLOGY SCIENCE) S.P.A., priority 2006, published 2009).

What was measured:
U937 cells = test: Proliferation test ViaLight HS, U937 cells (Example 8); format: cell-based, human; conditions: Homo sapiens, U-937, 72 h, 72 h incubation; range = multiple experiments, otherwise individual experiments
Experimental: 2C Proliferation test ViaLight® HS High Sensitivity Cytotoxicity and Cell Proliferation BioAssay Kit
This protocol allows the determination of the cytostatic and cytotoxic activities of compounds to be tested on mammalian cells in culture and was carried out essentially according to the manufacturer's recommendations.
Cells are suspended in 15 mL of their respective media and are enumerated. They are then diluted in their media in order to obtain: • 2500 cells per 90 μL per well for MRC5 cells • 5000 cells per 90 μL per well for all other cell lines. Cells are then seeded in a 96 well plate, and incubated at least 4 hours in the incubator at 37° C. in 5% CO2.
The molecules to be tested are diluted in DMEM with DMSO in order to obtain the following dilutions: • dilution at 250 μM/1% DMSO • dilution at 50 μM/1% DMSO • dilution at […] • dilution at 2 μM/1% DMSO • dilution at 400 nM/1% DMSO • dilution at 80 nM/1% DMSO For each well comprising 90 μL of cell suspension, 10 μL of a solution of the compound to be tested is added, with the 6 different concentrations. The plate is then incubated during 72 hours. One control plate is contacted with 10 μL of DMEM 1% DMSO, without compound to be tested. 50 μL of lysis buffer (test Vialight® lysis buffer) is added in each well of the control plate and the plate is incubated 10 minutes under hood.
Then, 100 μL of test buffer (test Vialight® test buffer) is added in each well and the control plate is incubated during 2 minutes. The luminescence is read in each well. The mean luminescence for each type of cells is called T0.
After the 72 h incubation, in order to determine the viability, 50 μL of lysis buffer (test Vialight® lysis buffer) is added in each well of the plates and the plates are incubated 10 minutes under hood.
Then, 100 μL of test buffer (test Vialight® test buffer) is added in each well and the plates are incubated during 2 minutes. The luminescence is read in each well. For each type of cell, the mean luminescence in the well not containing the compound is called C72 and the mean luminescence in well containing a given concentration of a compound to be tested is called T72. For each dilution (concentration of compound to be tested), T0 and T72 values are compared.
The graph is plotted for the different concentrations of compound and • GI50 (50% of growth inhibitory) is determined, this is the dose producing 50% of cell growth (intersection at Y=50); • TGI (total growth inhibitory) is determined on the graph, this is the dose producing the total arrest of the cell growth (intersection at Y=0); and • LC50 (50% of lethal concentration) is determined, this is the dose producing the death of 50% of the cells (intersection at Y=−50).
Following the protocol described in Example 2C, different compounds according to the invention have been tested for their cytostatic and cytotoxic activities on mammalian cells in culture (specifically U937 cells).
The GI50 (50% of growth inhibitory) has been determined for all the following compounds, i.e. the dose producing 50% of cell growth inhibition.
Where the GI50 provided is in the form of a range, it means that multiple experiments, whose results fall within the range indicated, were performed. Otherwise, results of individual experiments are provided.

MRC5 = test: Cell cycle analysis, MRC5; format: cell-based; conditions: 500 nM
Experimental: (§1) The cells are pelleted by gentle centrifugation 1200 rpm/5 min/4° C., then the supernatant is discarded and the cells are fixed with 1 mL of PBS/Ethanol 70% overnight at −20° C. The tubes are then centrifuged during 5 minutes at 1200 rpm and the supernatant is removed. The pellet is then re-suspended in 450 μL of PBS before 50 μL of RNAse (1 mg/mL) and 5 μL of propidium iodide (2 mg/mL) are added. Each tube is left 30 minutes at 37° C. and immediately analysed by flow cytometry after incubation.
(§2) A biparametric dot plot representation FL3 peak vs FL3 integer is plotted and the cells located on the diagonal are gated and analysed on a histogram representing the number of cells as a function of the FL3 peak.
(§3) To assess the relative position of cursors defining relative proportion of cells in subG1, G1, S or G2 phase of the cell cycle, G1 and G2 peaks are to be defined first:
(§4) The G1 peak is defined as the major peak in absence of treatment (generally X=200);
(§5) The G2 peak is centered on the value which is twice the value of the G1 peak (generally X=400).
(§6) Cells in subG1 phase are plotted in the part of the histogram preceding the G1 peak (generally X<200) and cells in S phase are enclosed in the area between the G1 and G2 peaks.
(§7) On this graphic, subG1, G1, S and G2/M phases of the cell cycle can thus be defined.
(§8) Viability and cell cycle profile, tested with compound (01), at 500 nM: […]

U937 = test: Cell cycle analysis, U937; format: cell-based, human; conditions: 500 nM
Experimental: as §1, §2, §3, §4, §5, §6, §7, §8

[1] = system: human lung cancer NCI-H460 cells (NSCLC); test: Inhibition of tumor growth in vivo, NCI-H460 xenograft; set-up: species or system Swiss nude mice
Experimental: FIG. 2: Inhibition of tumor growth in vivo.
This graph represents the growth of tumor size (by reference to the initial size of the tumor) grafted to mice receiving different treatments during 15 days.
Rhombus: evolution of the growth of the tumor measured in mice receiving the vehicle (without active ingredient) intra-peritoneally (2QD)
Triangle: evolution of the growth of the tumor measured in mice receiving the compound (01) intra-peritoneally at a dosage of 18 mg/kg (2QD).
Circle: evolution of the growth of the tumor measured in mice receiving taxol intra-peritoneally at 8 mg/kg (Q3D×5; d1; d4; d7; d10; d13).
Cross: evolution of the growth of the tumor measured in mice receiving a combination of compound (01) at a dosage of 18 mg/kg 2QD and taxol at a dosage of 8 mg/kg Q3D×5 intra-peritoneally.
For this experiment, Swiss nude mice received a subcutaneous xenograft of 5×10^6 human lung cancer NCI-H460 cells (NSCLC). The percentage of growth of the tumor size versus tumor size at the beginning of treatment is plotted during 15 days for mice receiving four different treatments (12 mice per group of treatment).
The first treatment corresponds to a control. The mice were given the vehicule intra-peritoneally, 2QD.
Composition of the vehicule: 10% DMSO; 10% PEG-400; 30% (EtOH/Cremophor (1/2)); 50% sterile water.
The second treatment corresponds to the administration of a compound of the invention, compound (01), at a dosage of 18 mg/kg 2QD.
The third treatment corresponds to the administration of Taxol at a dosage of 8 mg/kg Q3D×5; d1; d4; d7; d10; d13.
The fourth treatment corresponds to the administration of a combination of compound (01) at a dosage of 18 mg/kg 2QD and of Taxol at a dosage of 8 mg/kg Q3D×5.

GI50 (U937 cells): 59 to 200 nM
SMILES: COc1cc(NC(=S)NC(=O)/C=C/c2ccco2)ccc1-c1cc2ccccc2oc1=O [Compound 01, (2E)-3-(2-furyl)-N-({[3-methoxy-4-(2-oxo-2H-chromen-3-yl)phenyl]amino}carbonothioyl)acrylamide]
Cell cycle profile - 72 h (MRC5): G2/M accumulation
Cell cycle profile - 72 h (U937): Strong sub-G1
Growth of lung tumor xenograft ([1]; 18 mg/kg 2QD intra-peritoneally, 15 days): inhibits the growth
Dose dependence of the tumor growth inhibition ([1]; NCI-H460 xenograft): dose-dependent
Efficacy in reducing the tumour growth when combined with taxol ([1]; compound (01) 18 mg/kg 2QD plus taxol 8 mg/kg Q3D×5, intra-peritoneally): enhanced
